Results from patent US20240407361A1, “ORGANOSULFUR COMPOUNDS AS PLANT BIOSTIMULANTS” (AHV International B.V., priority 2021, published 2024).

How the values were obtained:
[1] = system: Lettuce Lactuca sativa “volare”; assay: Organosulfur compounds on lettuce, seed drench (Example 9); assay type: in vivo; settings: for Added harvest (weight) per plant compared to control (%) / Root formation (%) compared to control / Relative fresh weight/plant compared to control (%): seed drench, 1000× diluted emulsion; for Root formation (%) compared to control: control = 100; for Relative fresh weight/plant compared to control (%): control = emulsifier solution = 100; for Harvest: Fresh weight/plant: seeds drenched 10 minutes in 1000× diluted emulsion, 21 °C
Experimental: (§1) Experimental design. The bio-stimulatory effects of organosulfur compounds was tested on lettuce and sweet pepper (Capsicum annuum “Ritmico”). The tested compounds include di-n-propyl disulfide (GAS 629-19-6), di-n-propyl thiosulfonate (i.e., PTSO, CAS 1113-13-9), di-methyl thiosulfonate (GAS 2949-92-0), and di-phenyl thiosulfonate (Gas 1212-08-4). Di-methyl thiosulfonate and di-phenyl thiosulfonate were ordered from Adrich-Sigma. PTSO was purified as described in example 1. In order to obtain a stable and homogenous emulsion, the compounds were dissolved into an emulsifier solution (table 25) to assure that the crops are supplied with the defined solution. […] As examples herein, “PTSO Composition 5.2” refers to an agricultural composition comprising 5.2% PTSO and further comprises 59% emulsifier (propylene glycol and glyceryl polyethyleneglycol ricinoleate). “PTSO composition 5.2 Yuka” in an agricultural composition comprising 5.2% PTSO and 90.2% Yuka extract. “PTSO composition 5.2 Tween” in an agricultural composition comprising 5.2% PTSO, 30.1% Tween, 30.1% DMSO and 30% water.
(§2) The dosage of the test compounds was standardized on base of the molar dosage and the same molar dosage was administered as PTSO. Emulsions were prepared by adding the required amount of the compounds as indicated in table 25 in 100 ml volumes of 50% tween 80 and 50 ml DMSO. Hereafter, the volumes were supplemented to a final volume of 250 ml with the same mixture and incubation took place at an orbital shaker at 37° C. (30 minutes, 250 rpm).
Before seeding, the seeds of lettuce were drenched into 1000× diluted emulsions as indicated in table 25 and incubated for 10 minutes. Each treatment was performed in 4-fold. In table 26 the growth settings of lettuce and sweet peppers are summarized and in table 27 a summary of the realized growth conditions and crop harvest is presented of lettuce.

[2] = system: sweet pepper (Capsicum annuum “Ritmico”); assay: Organosulfur compounds on sweet pepper, drip (Example 9); assay type: in vivo; settings: no fruits yet, preliminary
Experimental: as §1, §2

| SMILES | Added harvest (weight) per plant compared to control (%) [1] | Root formation (%) compared to control [1] | Relative fresh weight/plant compared to control (%) [1] | Harvest: Fresh weight/plant [1] | Size increase over control (%) [2] |
| --- | --- | --- | --- | --- | --- |
| CCCSS(=O)(=O)CCC [PTSO, di-n-propyl thiosulfonate] | 13% | 110% | 113% | 1.84 | 4.2% |
| CSS(C)(=O)=O [Di-methyl thiosulfonate, di-methyl thiosulfonate] | 20% | 115% | 120% | 1.96 | 6.1% |
| O=S(=O)(Sc1ccccc1)c1ccccc1 [Di-phenyl thiosulfonate, di-phenyl thiosulfonate] | 3% | 93.9% | 103% | 1.68 | 2.8% |
| CCCSSCCC [Di-propyl disulfide] | 10% | 109% | 110% | 1.80 | 2.8% |
